Assay results reported in PubChem BioAssay (NCI).
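Results reflect a 48-hour exposure of cells in 96-well plates to compound at five concentrations. GI50 marks 50% less growth. TGI is the concentration that stops growth completely.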

How the values were obtained:
Assay in all cases: NCI-60 cell line screen, 48 h
SF-539 CNS = tested on: SF-539 CNS
CAKI-1 renal = tested on: CAKI-1 renal
M14 melanoma = tested on: M14 melanoma
MDA-MB-435 = tested on: MDA-MB-435
BT-549 breast = tested on: BT-549 breast
TK-10 renal = tested on: TK-10 renal
HL-60(TB) leukemia = tested on: HL-60(TB) leukemia
MALME-3M melanoma = tested on: MALME-3M melanoma
ACHN renal = tested on: ACHN renal
A498 renal = tested on: A498 renal
786-0 renal = tested on: 786-0 renal
SNB-19 CNS = tested on: SNB-19 CNS
T-47D breast = tested on: T-47D breast
IGROV1 ovarian = tested on: IGROV1 ovarian
A549 NSCLC = tested on: A549 NSCLC
SW-620 colon = tested on: SW-620 colon
OVCAR-8 ovarian = tested on: OVCAR-8 ovarian
OVCAR-5 ovarian = tested on: OVCAR-5 ovarian
COLO 205 colon = tested on: COLO 205 colon
CCRF-CEM leukemia = tested on: CCRF-CEM leukemia
HS 578T breast = tested on: HS 578T breast
HCC-2998 colon = tested on: HCC-2998 colon
MDA-MB-468 breast = tested on: MDA-MB-468 breast
NCI-H226 lung = tested on: NCI-H226 lung
HCT-116 colon = tested on: HCT-116 colon
U251 CNS = tested on: U251 CNS
SK-MEL-5 melanoma = tested on: SK-MEL-5 melanoma
UACC-257 melanoma = tested on: UACC-257 melanoma

Clc1ccc(-c2ccc(OCCCN3CCN(c4ccncc4)CC3)cc2)cc1
GI50 (SF-539 CNS): 12.5 µM
TGI (SF-539 CNS): 25.4 µM
GI50 (CAKI-1 renal): 15.3 µM
TGI (CAKI-1 renal): 32.4 µM
GI50 (M14 melanoma): 14.3 µM
TGI (M14 melanoma): 28.7 µM
GI50 (MDA-MB-435): 11.1 µM
TGI (MDA-MB-435): 23.5 µM
GI50 (BT-549 breast): 11.7 µM
TGI (BT-549 breast): 25.9 µM
GI50 (TK-10 renal): 19.6 µM
TGI (TK-10 renal): 36.2 µM
GI50 (HL-60(TB) leukemia): 4.46 µM
TGI (HL-60(TB) leukemia): 19.7 µM
GI50 (MALME-3M melanoma): 18.1 µM
TGI (MALME-3M melanoma): 32.7 µM
GI50 (ACHN renal): 16.3 µM
TGI (ACHN renal): 30.4 µM
GI50 (A498 renal): 15.8 µM
TGI (A498 renal): 29.6 µM
GI50 (786-0 renal): 14 µM
TGI (786-0 renal): 27.1 µM
GI50 (SNB-19 CNS): 15.7 µM
TGI (SNB-19 CNS): 30 µM
GI50 (T-47D breast): 16.2 µM
TGI (T-47D breast): 40.2 µM
GI50 (IGROV1 ovarian): 16.8 µM
TGI (IGROV1 ovarian): 32.1 µM
GI50 (A549 NSCLC): 15.1 µM
TGI (A549 NSCLC): 29.9 µM
GI50 (SW-620 colon): 9.92 µM
TGI (SW-620 colon): 23.3 µM
GI50 (OVCAR-8 ovarian): 22 µM
TGI (OVCAR-8 ovarian): 68.1 µM
GI50 (OVCAR-5 ovarian): 14.5 µM
TGI (OVCAR-5 ovarian): 28.6 µM
GI50 (COLO 205 colon): 7.31 µM
TGI (COLO 205 colon): 20.6 µM
GI50 (CCRF-CEM leukemia): 4.65 µM
TGI (CCRF-CEM leukemia): 24.1 µM
GI50 (HS 578T breast): 17.9 µM
TGI (HS 578T breast): 45.3 µM
GI50 (HCC-2998 colon): 13.3 µM
TGI (HCC-2998 colon): 26.6 µM
GI50 (MDA-MB-468 breast): 6.28 µM
TGI (MDA-MB-468 breast): 19.5 µM
GI50 (NCI-H226 lung): 20.8 µM
TGI (NCI-H226 lung): 55.8 µM
GI50 (HCT-116 colon): 2.73 µM
TGI (HCT-116 colon): 10.4 µM
GI50 (U251 CNS): 11.8 µM
TGI (U251 CNS): 25.4 µM
GI50 (SK-MEL-5 melanoma): 14.9 µM
TGI (SK-MEL-5 melanoma): 28.1 µM
GI50 (UACC-257 melanoma): 17.3 µM
TGI (UACC-257 melanoma): 32.6 µM
